Assays:
Assay in all cases: fluorescence scan of RNA array
Conditions in all cases: 6 mM MgCl2, 20 mM NaCl; 40 mM Tris pH 7.8, 20 °C, 16 h; 20 μM malachite green
[1] = test system: MGsa (malachite green aptamer–streptavidin aptamer conjugate) (RNA, aptamer) GGAUCCCGACUGGCGAGAGCCAGGUAACGAAUGGAUCCACACACACACACACACACACGCAUGCAUACCGACCAGAAUCAUGCAAGUGCGUAAGAUAGUCGCGGGCCGGGAUGCAUGC
[2] = test system: DsrAsa (RNA, other) GGGAACACAUCAGAUUUCCUGGUGUAACGAAUUUUUUAAGUGCUUCUUGCUUAAGCAAGUUUCAUCCCGACCCCCUCAGGGUCGGGAUUUUUUUUUUUUUUUUUUUUUUAGAGACCGACCAGAAUCAUGCAAGUGCGUAAGAUAGUCGCGGGCCGGGCUCUA
[3] = test system: rpoSsa (RNA, mRNA element) GGGUUCUGAGUCUUCGGGUGAACAGAGUGCUAACAAAAUGUUGCCGAACAACAAGCCAACUGCGACCACGGUCACAGCGCCUGUAACGGUACCAACAGCAAGCACAACCGAGCCGACUGUCAGCAGUACAUCAACCAGUACGCCUAUCUCCACCUGGACCUGGCCGACUGAGGGCAAAGUGAUCGAAACCUUUGGCGCUUCUGAGGGGGGCAACAAGGGGAUUGAUAUCGCAGGCAGCAAAGGACAGGCAAUUAUCGCGACCGCAGAUGGCCGCGUUGUUUAUGCUGGUAACGCGCUGCGCGGCUACGGUAAUCUGAUUAUCAUCAAACAUAAUGAUGAUUACCUGAGUGCCUACGCCCAUAACGACACAAUGCUGGUCCGGGAACAACAAGAAGUUAAGGCGGGGCAAAAAAUAGCGACCAUGGGUAGCACCGGAACCAGUUCAACACGCUUGCAUUUUGAAAUUCGUUACAAGGGGAAAUCCGUAAACCCGCUGCGUUAUUUGCCGCAGCGAUAAAUCGGCGGAACCAGGCUUUUGCUUGAAUGUUCCGUCAAGGGAUCACGGGUAGGAGCCACCUUAUGAGUCAGAUUUUUUUUUUUUUUUUUUAUGCAUGCACCGACCAGAAUCAUGCAAGUGCGUAAGAUAGUCGCGGGCCGGGGCAUGCAU
[4] = test system: RprAsa (RNA, other) GGGACGGUUAUAAAUCAACAUAUUGAUUUAUAAGCAUGGAAAUCCCCUGAGUGAAACAACGAAUUGCUGUGUGUAGUCUUUGCCCAUCUCCCACGAUGGGCUUUUUUUUUUUUUUUUUUUUUUUUUUGUGUGACCGACCAGAAUCAUGCAAGUGCGUAAGAUAGUCGCGGGCCGGGCACAC
[5] = test system: MicAsa (RNA, other) GGGGAAAGACGCGCAUUUGUUAUCAUCAUCCCUGAAUUCAGAGAUGAAAUUUUGGCCACUCACGAGUGGCCUUUUACACACACACACACACACACGCAUGCAUACCGACCAGAAUCAUGCAAGUGCGUAAGAUAGUCGCGGGCCGGGAUGCAUGC
[6] = test system: ompAsa (RNA, mRNA element) GGGCCAGGGGUGCUCGGCAUAAGCCGAAGAUAUCGGUAGAGUUAAUAUUGAGCAGAUCCCCCGGUGAAGGAUUUAACCGUGUUAUCUCGUUGGAGAUAUUCAUGGCGUAUUUUGGAUGAUAACGAGGCGCAAAAAAUGAAAAAGACAGCUAUCGCGAUUGCAGUGGCAAAUAAUAAUAAUAAUAAUAAUAUGCAUGCACCGACCAGAAUCAUGCAAGUGCGUAAGAUAGUCGCGGGCCGGGGCAUGCAU

Measured: binding

CN(C)c1ccc(C(=C2C=CC(=[N+](C)C)C=C2)c2ccccc2)cc1
yes: [1]
no: all other assays above

— article PMC6101487 (2018)
